Tests used:
[1] = Protein binding in plasma (unknown origin); type: ADME, cell-free; conditions: read-out: PPB (converted)
[2] = molecular target: T1, Albumin (Homo sapiens, UniProt P02768); experiment: Protein binding in immobilized human serum albumin after 15 mins by HPLC analysis; type: ADME; conditions: read-out: PB (converted)
[3] = molecular target: T1, Albumin; experiment: Protein binding in immobilized human serum albumin by HPLC analysis; type: ADME; conditions: read-out: PB (converted)
[4] = molecular target: T1, Albumin; experiment: Protein binding in human serum albumin after 4.5 hrs by LC-MS based rapid equilibrium dialysis method; type: ADME; conditions: read-out: PB (converted)

T1 sequence (P02768 whole entry): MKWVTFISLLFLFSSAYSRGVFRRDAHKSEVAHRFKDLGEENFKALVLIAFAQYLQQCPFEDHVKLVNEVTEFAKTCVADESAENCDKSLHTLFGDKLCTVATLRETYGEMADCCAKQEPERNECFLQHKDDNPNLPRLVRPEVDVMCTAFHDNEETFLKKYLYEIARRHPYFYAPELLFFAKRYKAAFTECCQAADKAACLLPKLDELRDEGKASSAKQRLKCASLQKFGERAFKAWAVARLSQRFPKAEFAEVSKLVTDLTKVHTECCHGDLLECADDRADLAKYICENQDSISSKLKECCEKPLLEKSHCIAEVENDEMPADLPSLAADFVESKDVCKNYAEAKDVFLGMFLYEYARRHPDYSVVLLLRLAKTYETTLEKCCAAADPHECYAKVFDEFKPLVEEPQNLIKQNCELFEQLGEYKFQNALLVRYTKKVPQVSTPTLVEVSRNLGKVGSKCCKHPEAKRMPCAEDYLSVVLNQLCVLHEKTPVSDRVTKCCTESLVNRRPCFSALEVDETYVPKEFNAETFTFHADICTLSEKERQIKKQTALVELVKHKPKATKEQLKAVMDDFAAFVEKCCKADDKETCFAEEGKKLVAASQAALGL

Compound	fraction unbound [1]	fraction unbound at 0.25 h [2]	fraction unbound [3]	fraction unbound at 4.5 h [4]
CCN(CC)CCOC(=O)c1ccc(N)cc1 [PROCAINE]	0.94	0.64	–	–
CCOC(=O)c1cc(-c2ccc(F)cc2F)ccc1O	–	–	0.025	–
NC(N)=Nc1nc(CSCCC(N)=NS(N)(=O)=O)cs1 [FAMOTIDINE]	0.8	–	0.749	0.956
CCCCc1c(OC)n(-c2ccccc2)n(-c2ccccc2)c1=O	–	–	0.071	0.071
CO/N=C(\C(=O)N[C@@H]1C(=O)N2C(C(=O)O)=C(COC(N)=O)CS[C@H]12)c1ccco1 [CEFUROXIME]	0.67 to 0.685	–	–	–
COC1=C(C(=O)Nc2ncc(C)s2)N(C)S(=O)(=O)c2ccccc21	–	–	0.158	0.341
CN1C(C(=O)Nc2ccccn2)=C(O)c2sc(Cl)cc2S1(=O)=O [LORNOXICAM]	–	–	–	0.02
Cc1ncc([N+](=O)[O-])n1CCO [METRONIDAZOLE]	0.89 to 0.9	–	–	–
O=C1CN=C(c2ccccc2)c2cc([N+](=O)[O-])ccc2N1 [NITRAZEPAM]	–	–	0.233	–
CC1=C(CC(=O)O)c2cc(F)ccc2/C1=C\c1ccc([S+](C)[O-])cc1 (stereo not drawn)	0.06 to 0.065	–	–	–
CC(C)NCC(O)COc1cccc2ccccc12 (stereo not drawn) [PROPRANOLOL]	–	–	0.375	–
CCN(CC)CCC[C@H](C)Nc1ccnc2cc(Cl)ccc12	–	–	0.495	–
NNC(=O)c1ccncc1 [ISONIAZID]	1	0.932	0.891	–
CCCCC1(C)C(=O)N(c2ccccc2)N(c2ccccc2)C1=O	–	–	0.15	0.359
CN1C(C(=O)Nc2ccccn2)=C(O)c2ccccc2S1(=O)=O [PIROXICAM]	0.01	–	–	–
COc1cc(Cc2cnc(N)nc2N)cc(OC)c1OC [TRIMETHOPRIM]	0.585 to 0.625	–	0.627	0.969
CN1C(C(=O)Nc2ccccn2)=C(O)c2sccc2S1(=O)=O [TENOXICAM]	–	–	–	0.032
CNC(=O)Oc1ccc2c(c1)[C@]1(C)CCN(C)[C@@H]1N2C [PHYSOSTIGMINE]	–	–	0.8	0.903
CN(C)CCCN1c2ccccc2CCc2ccccc21 [IMIPRAMINE]	0.074 to 0.099	–	0.151	–
Cc1cnc(NC(=O)C2=C(O)c3ccccc3S(=O)(=O)N2C)s1 [MELOXICAM]	–	–	0.001	0.033
